Data reported in publication PMC4514675, “Novel Apo E-Derived ABCA1 Agonist Peptide (CS-6253) Promotes Reverse Cholesterol Transport and Induces Formation of preβ-1 HDL In Vitro” (PLoS ONE, 2015).
Where “and” joins values, the source holds several entries; their conditions need not be identical. Equal values may be shown once.

Legend:
[1] = biological target: T1, ABCA1 (Mus musculus, UniProt P41233); test: ABCA1-mediated cholesterol efflux from cAMP-treated J774 macrophages; assay type: cell-based; conditions: mean ± SD
T1 construct: host or cells: J774 mouse macrophages stimulated with Cpt-cAMP
T1 sequence (P41233 whole entry): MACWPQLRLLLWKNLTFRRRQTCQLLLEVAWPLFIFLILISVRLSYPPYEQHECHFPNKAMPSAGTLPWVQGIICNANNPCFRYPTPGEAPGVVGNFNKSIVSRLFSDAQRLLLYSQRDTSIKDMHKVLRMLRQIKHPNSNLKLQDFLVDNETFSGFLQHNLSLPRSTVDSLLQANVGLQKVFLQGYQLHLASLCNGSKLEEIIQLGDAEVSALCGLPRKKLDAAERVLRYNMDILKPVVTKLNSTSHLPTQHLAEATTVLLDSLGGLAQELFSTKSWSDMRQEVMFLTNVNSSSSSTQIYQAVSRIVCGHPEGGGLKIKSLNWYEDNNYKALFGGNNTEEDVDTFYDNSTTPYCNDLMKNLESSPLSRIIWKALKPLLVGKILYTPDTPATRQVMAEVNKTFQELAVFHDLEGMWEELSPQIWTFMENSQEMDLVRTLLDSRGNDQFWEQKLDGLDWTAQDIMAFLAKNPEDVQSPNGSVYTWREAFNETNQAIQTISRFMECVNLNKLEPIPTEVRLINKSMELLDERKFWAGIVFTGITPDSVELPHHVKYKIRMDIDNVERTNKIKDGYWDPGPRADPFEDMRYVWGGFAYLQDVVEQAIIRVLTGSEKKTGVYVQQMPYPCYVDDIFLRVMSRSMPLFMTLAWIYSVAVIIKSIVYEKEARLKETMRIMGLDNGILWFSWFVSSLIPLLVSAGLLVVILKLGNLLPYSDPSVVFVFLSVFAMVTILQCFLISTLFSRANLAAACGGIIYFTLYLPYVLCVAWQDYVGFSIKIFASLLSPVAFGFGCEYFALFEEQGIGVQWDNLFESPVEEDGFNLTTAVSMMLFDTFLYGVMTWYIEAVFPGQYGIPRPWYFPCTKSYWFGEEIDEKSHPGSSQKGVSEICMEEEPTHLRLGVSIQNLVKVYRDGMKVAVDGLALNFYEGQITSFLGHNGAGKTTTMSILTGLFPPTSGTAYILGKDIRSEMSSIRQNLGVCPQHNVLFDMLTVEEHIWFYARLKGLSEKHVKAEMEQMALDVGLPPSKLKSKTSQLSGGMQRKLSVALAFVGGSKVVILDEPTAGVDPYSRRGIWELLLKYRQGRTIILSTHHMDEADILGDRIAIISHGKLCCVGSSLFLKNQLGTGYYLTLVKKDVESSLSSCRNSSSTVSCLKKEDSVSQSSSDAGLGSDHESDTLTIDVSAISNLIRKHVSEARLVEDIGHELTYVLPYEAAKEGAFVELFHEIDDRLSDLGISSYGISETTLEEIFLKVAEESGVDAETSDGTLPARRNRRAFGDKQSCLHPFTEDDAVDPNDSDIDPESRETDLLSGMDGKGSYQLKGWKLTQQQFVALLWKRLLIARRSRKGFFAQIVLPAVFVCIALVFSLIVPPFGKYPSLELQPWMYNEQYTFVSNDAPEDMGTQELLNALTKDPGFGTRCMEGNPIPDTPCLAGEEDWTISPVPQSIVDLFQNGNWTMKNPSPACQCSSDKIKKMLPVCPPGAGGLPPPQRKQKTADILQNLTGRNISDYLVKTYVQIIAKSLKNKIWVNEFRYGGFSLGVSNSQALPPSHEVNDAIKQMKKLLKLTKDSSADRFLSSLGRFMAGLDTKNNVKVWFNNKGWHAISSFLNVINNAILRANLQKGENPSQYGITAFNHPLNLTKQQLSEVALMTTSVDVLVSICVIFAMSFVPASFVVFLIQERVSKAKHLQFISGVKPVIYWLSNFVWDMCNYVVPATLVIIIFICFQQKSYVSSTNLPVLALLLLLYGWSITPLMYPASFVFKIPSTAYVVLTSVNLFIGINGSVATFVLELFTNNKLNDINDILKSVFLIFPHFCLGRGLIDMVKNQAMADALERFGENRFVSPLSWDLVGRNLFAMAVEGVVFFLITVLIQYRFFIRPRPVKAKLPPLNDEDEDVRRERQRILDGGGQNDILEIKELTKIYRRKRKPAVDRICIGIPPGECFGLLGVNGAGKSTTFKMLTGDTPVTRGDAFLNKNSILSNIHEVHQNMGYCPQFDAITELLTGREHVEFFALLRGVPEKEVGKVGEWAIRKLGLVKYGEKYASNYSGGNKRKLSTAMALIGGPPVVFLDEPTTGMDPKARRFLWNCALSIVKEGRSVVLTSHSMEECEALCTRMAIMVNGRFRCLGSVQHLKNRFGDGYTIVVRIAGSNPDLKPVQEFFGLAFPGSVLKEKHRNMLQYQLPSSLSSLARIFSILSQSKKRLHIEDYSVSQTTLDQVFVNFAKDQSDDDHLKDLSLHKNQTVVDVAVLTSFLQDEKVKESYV
Description: (§1) BHK cells stably transfected with an ABCA1 or ABCG1 expression vector that is mifepristone inducible and cells transfected with the same vector lacking the ABCA1 cDNA insert (mutant or mock-transfected) were generously provided by the late Dr. John F. Oram from the Department of Medicine, University of Washington, and were characterized and cultured as previously described. […] Mouse-derived peritoneal macrophages J774 were purchased from American Tissue Culture Collection (ATCC TIB-67, Cederlane, Burlington, Canada). For induction of ABCA1, BHK cells were incubated for 18–20 h with 10 nM mifepristone. J774 macrophages were stimulated with 0.3 mM Cpt-cAMP 8-(4-Chlorophenylthio)-cyclic adenosine monophosphate (Sigma). […]
All cell culture incubations were performed at 37 °C in a humidified 5% CO2. […] Media were collected, centrifuged at 3.000 g for 5min to remove cell debris, and counted for radioactivity. […] Further, 0.2 ml cells lysates were mixed with scintillation liquid and counted for radioactivity. […] Cholesterol efflux was calculated according to the following formula as the percentage of ^3H-cpm medium/(^3H-cpm medium + ^3H-cpm cells) x 100%. Efflux efficiency (Km) was calculated using the Michaelis-Menten equation (Graph-Pad Prism6 software) respectively (S1, S8 and S9 Figs.)

[2] = system: BHK-mock cells; test: Cholesterol efflux from control cells (unstimulated BHK-ABCA1, BHK-mock), media; assay type: cell-based, hamster
Description: as §1, with “mifepristone.” for “mifepristone. J774 macrophages were stimulated with 0.3 mM Cpt-cAMP 8-(4-Chlorophenylthio)-cyclic adenosine monophosphate (Sigma).”
Fig 2 Effect of CS-6253 treatment on cholesterol efflux. […] Cholesterol efflux from either ABCA1 cells or control cells to apo A-I (closed circles), and CS-6253 (closed triangles) was determined at the indicated time points. […] ABCA1 was detected from THP-1 foam cells lysis at 4°C with lysis buffer containing 0.5% n-dodecylmaltoside in the presence of a protease inhibitor mixture followed by low speed centrifugation to remove cell debris. Protein concentration was determined by standard assay (Bio-Rad). […] After electrophoresis, ABCA1 was detected by an anti-ABCA1 antibody. […] 3[H]-FC and 3[H]-CE were separated by TLC and located by exposure to iodine vapor, and were scraped off into liquid scintillating vials and assayed for radioactivity. […]

[3] = system: BHK cells expressing ABCA1; test: Nascent HDL particle formation, 2D-PAGGE; assay type: cell-based, hamster; conditions: 0.96 μM
Procedure: Apo A-I and CS-6253-containing particles were separated according to charge (agarose, horizontal axis) and size (polyacrylamide gradient, 3% to 20% gel, vertical axis) as previously described. Apo A-I-containing particles were detected by incubating the membranes with immunopurified polyclonal anti-apo A-I antibody (Biodesign). The nHDL-CS-6253 containing particles were detected with immunopurified polyclonal anti-CS-6253 antibody (Biosynthesis Inc., Lewisville, TX). The anti-CS-6253 is a purified rabbit IgG polyclonal antibody specifically produced by Biosynthesis Inc. It is. Cross reactivity of this antibody was verified by Nondenaturing gradient gel electrophoresis (ND-PAGGE) 5% to 35% [24]. The anti-CS-6253 antibody recognizes only CS-6253 peptide in plasma; neither apo A-I nor apo E were detected by this antibody after separation by gradient gel electrophoresis respectively (Fig 1A, 1B and 1C). High molecular weight protein mixture (GE Healthcare, UK) was run as a standard on each gel.
Next, we investigated the nature of CS-6253-containing particles released in the medium from stimulated ABCA1 cells. Cells were first incubated in 100 mm diameter dishes with either (0.96 μM) apo A-I or CS-6253 in 8 ml of DMEM for 45 min and 6 h at 37°C. These two time points were selected based on our previous work on HDL biogenesis. Lipid free apo A-I or CS-6253 incubated in cell free system media under same conditions were used as control for 2D-PAGGE analysis. Apo A-I or CS-6253-containing particles were separated and analyzed by 2D-PAGGE. […] Both the charge and size of these nascent particles were stable over a 6h incubation period.
Fig 5 Time course ability of CS-6253 to generate nHDL-mimetic like particles. (A and B): nHDL-CS-6253 and nHDL-apo A-I released to the medium at specific time points (45 min and 6 h) from BHK cells expressing ABCA1 were analyzed by 2D-PAGGE. […] Molecular markers are indicated.

apolipoprotein A-I [apo A-I]
Km, cholesterol efflux ([1]; 6 h): 3.82±1.81 μg/ml and 0.15±0.05 μM | Vmax, cholesterol efflux [1]: 6.90±1.06 % efflux/6h | maximum cholesterol efflux by diffusion ([2]; BHK mock and unstimulated BHK-ABCA1 cells): 0.75% | cholesterol efflux from control cells ([2]; unstimulated BHK-ABCA1 and BHK-mock, CS-6253 30 μg/ml, apo A-I 10 μg/ml): no significant cholesterol efflux | electrophoretic mobility of released particles ([3]; 45 min or 6 h, BHK-ABCA1): α-electrophoretic mobility | electrophoretic mobility, incubated without cells ([3]; cell free media): pre-β electrophoretic mobility | molecular diameter, incubated without cells ([3]; lipid free, cell free media, pre-β mobility): 7.1 nm
